Consider 16 compounds from PMC10342305, “Identification of N-Acyl Hydrazones as New Non-Zinc-Binding MMP-13 Inhibitors by Structure-Based Virtual Screening Studies and Chemical Optimization” (International Journal of Molecular Sciences, 2023).

A value given as a limit tells only on which side of the number the result lay.

In one data set the target is T1, MMP-2 (Homo sapiens, UniProt P08253).
T1 sequence (P08253 110-660): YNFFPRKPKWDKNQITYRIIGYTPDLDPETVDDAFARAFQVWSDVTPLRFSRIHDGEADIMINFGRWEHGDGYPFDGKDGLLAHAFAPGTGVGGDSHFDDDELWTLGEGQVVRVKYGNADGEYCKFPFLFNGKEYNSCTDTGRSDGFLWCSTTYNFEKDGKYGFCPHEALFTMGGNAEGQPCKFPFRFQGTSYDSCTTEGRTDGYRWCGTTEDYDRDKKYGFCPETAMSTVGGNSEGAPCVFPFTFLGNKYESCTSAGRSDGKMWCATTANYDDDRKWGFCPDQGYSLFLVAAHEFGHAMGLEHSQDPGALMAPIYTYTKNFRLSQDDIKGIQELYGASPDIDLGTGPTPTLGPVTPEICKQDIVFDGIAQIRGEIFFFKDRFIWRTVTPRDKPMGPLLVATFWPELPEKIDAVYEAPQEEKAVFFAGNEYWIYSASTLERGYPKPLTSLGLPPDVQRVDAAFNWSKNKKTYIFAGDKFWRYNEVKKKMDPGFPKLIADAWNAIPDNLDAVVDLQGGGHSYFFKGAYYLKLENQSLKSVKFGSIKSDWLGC
Put plainly: Fluorometric enzyme inhibition assay on MMP-2.

In another data set the target is T2, MMP-1 (Homo sapiens, UniProt P03956).
T2 sequence (P03956 100-469): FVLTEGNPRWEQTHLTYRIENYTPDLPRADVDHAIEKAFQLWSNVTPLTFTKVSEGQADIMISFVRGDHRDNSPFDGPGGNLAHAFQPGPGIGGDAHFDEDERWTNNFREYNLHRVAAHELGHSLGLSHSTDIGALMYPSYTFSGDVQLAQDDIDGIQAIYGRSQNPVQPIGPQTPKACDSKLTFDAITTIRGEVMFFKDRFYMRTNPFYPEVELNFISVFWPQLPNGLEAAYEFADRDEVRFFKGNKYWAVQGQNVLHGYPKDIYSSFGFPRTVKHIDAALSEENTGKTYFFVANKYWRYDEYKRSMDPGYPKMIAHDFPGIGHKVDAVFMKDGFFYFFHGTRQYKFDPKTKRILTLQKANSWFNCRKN
Briefly: Fluorometric enzyme inhibition assay on MMP-1.

The target of another data set is MMP-9 (Homo sapiens, UniProt P14780). Put plainly: Fluorometric enzyme inhibition assay on MMP-9.
The target of another data set is T3, MMP-14 (Homo sapiens, UniProt P50281).
T3 construct: Recombinant human MMP-14 catalytic domain; gift from Prof; Gillian Murphy (Department of Oncology, University of Cambridge, UK)
Briefly: Fluorometric enzyme inhibition assay on MMP-14 catalytic domain. It is filed as biochemical. The settings on record: mean ± SD of three independent experiments. How it is done: (§1) Recombinant human MMP-14 catalytic domain was a kind gift from Prof. Gillian Murphy (Department of Oncology, University of Cambridge, UK). Pro-MMP-1, pro-MMP-2, pro-MMP-9, and pro-MMP-13 were purchased from Merck Millipore (Burlington, MA, USA). p-Aminophenylmercuric acetate (APMA) was from Sigma-Aldrich (St. Louis, MO, USA).
(§2) For assay measurements, the purchased compound stock solutions (10 mM in DMSO) were further diluted for each MMP in the fluorometric assay buffer (FAB: Tris 50 mM, pH = 7.5, NaCl 150 mM, CaCl2 10 mM, Brij 35 0.05%, and DMSO 1%), following the protocol already reported. […] The assays were performed in triplicate with a total volume of 200 μL per well in 96-well microtitre plates (Corning, black, NBS, Turin, Italy). The MMP inhibition activity was expressed in relative fluorescent units (RFU). The percentage of inhibition was calculated from control reactions without the inhibitor. The inhibitory effect of the tested compounds was routinely estimated at a concentration of 100 μM on MMP-13. […] Results were analyzed using SoftMax Pro software version 5.4.3 (Molecular Devices, Sunnyvale, CA, USA) and Prism Software version 5.0 (GraphPad Software, Inc., La Jolla, CA, USA).

The target of the next data set is T4, MMP-13 (Homo sapiens, UniProt P45452).
T4 construct: purchased Merck Millipore (Burlington, MA, USA)
Briefly: Fluorometric enzyme inhibition assay on MMP-13. In kind it is biochemical. As to conditions: mean ± SD of three independent experiments.
Source text: ARP100 [26], a hydroxamate-based MMP inhibitor previously developed by our research group, was used in the same assay conditions as the reference compound.
as §1, §2

MMP-9, sequence (P14780 107-707 limits assumed): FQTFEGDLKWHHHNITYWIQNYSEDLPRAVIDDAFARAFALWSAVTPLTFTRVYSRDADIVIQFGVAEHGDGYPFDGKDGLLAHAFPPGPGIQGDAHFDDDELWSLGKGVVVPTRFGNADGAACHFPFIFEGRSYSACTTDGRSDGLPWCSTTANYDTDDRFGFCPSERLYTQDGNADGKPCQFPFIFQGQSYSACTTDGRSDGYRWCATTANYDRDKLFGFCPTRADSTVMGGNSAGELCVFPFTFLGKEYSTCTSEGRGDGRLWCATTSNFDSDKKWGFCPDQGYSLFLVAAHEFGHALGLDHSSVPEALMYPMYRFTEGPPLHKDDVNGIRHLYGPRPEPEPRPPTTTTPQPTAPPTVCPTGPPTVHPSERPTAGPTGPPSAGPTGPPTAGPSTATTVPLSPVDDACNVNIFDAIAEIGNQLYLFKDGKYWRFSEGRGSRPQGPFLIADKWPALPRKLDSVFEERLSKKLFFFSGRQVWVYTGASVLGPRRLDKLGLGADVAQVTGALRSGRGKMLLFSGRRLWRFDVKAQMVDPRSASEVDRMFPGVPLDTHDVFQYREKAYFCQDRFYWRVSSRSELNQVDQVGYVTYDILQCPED

Consider `N#C/C(=C\c1cn(Cc2ccc(Cl)cc2)c2ccccc12)c1nn(-c2ccccc2)c(N)c1C#N` [Compound 11], for which the half-inhibitory concentration (IC50) on MMP-2 was determined as 60 ± 4.6 µM; against MMP-1 it was 99 ± 8 µM; against MMP-9 it was 66 ± 4.6 µM; at MMP-14, 94 ± 5.5 µM.
The matching figures for `O=C(COC(=O)c1ccccc1Sc1ccc([N+](=O)[O-])cc1)c1ccc(-c2ccccc2)cc1` [Compound 12]: 47 ± 1.6 µM, 75 ± 4 µM, 72 ± 4.8 µM and 67 ± 4.6 µM.
With `C/C(=N\NC(=O)Cc1ccc([N+](=O)[O-])cc1)c1ccc(NC(=O)c2ccc(Br)o2)cc1` [Compound 13, (E)-5-bromo-N-(4-(1-(2-(2-(4-nitrophenyl)acetyl)hydrazineylidene)ethyl)phenyl)furan-2-carboxamide], the IC50 on MMP-2 was 99 ± 6 µM; against MMP-1 it was 91 ± 0.8 µM; against MMP-9, 68 ± 3 µM; against MMP-14, 63 ± 5.4 µM.
Turning to `C/C(=N\NC(=O)Cc1ccc([N+](=O)[O-])cc1)c1ccc(NC(=O)c2ccc(S(N)(=O)=O)o2)cc1` [Compound 13a], the melting point fell in the range of 255 to 258 °C. Further, on MMP-13, the IC50 is above 100 µM.
The compound `C/C(=N\NC(=O)Cc1ccc([N+](=O)[O-])cc1)c1ccc(NC(=O)c2ccc(CO)o2)cc1` [Compound 13b, (E)-5-(hydroxymethyl)-N-(4-(1-(2-(2-(4nitrophenyl)acetyl)hydrazineylidene)ethyl)phenyl) furan-2-carboxamide] had a melting point of 238 to 241 °C. On MMP-13, this compound gave an IC50 above 100 µM.
In turn, `O=C(Cc1ccc([N+](=O)[O-])cc1)N/N=C/c1ccc(NC(=O)c2ccc(Br)o2)cc1` [Compound 13c, (E)-5-bromo-N-(4-((2-(2-(4-nitrophenyl)acetyl)hydrazineylidene)methyl)phenyl)furan-2-carboxamide] showed a melting point of 277 to 279 °C.
Turning to `O=C(Cc1ccc([N+](=O)[O-])cc1)N/N=C/c1ccc(NC(=O)c2ccc(CO)o2)cc1` [Compound 13d, (E)-5-(hydroxymethyl)-N-(4-((2-(2-(4-nitrophenyl)acetyl)hydrazineylidene)methyl)phenyl) furan-2-carboxamide], the melting point is 246 to 248 °C. Besides, inhibition at MMP-13 was half-maximal at 40 ± 3.5 µM (IC50).
The matching figures for `C/C(=N\NC(=O)Cc1ccc(-c2nc(C)no2)cc1)c1ccc(NC(=O)c2ccc(Br)o2)cc1` [Compound 13e, (E)-5-bromo-N-(4-(1-(2-(2-(4-(3-methyl-1,2,4-oxadiazol-5-yl)phenyl)acetyl)hydrazineylidene)ethyl)phenyl)furan-2-carboxamide]: 252 to 255 °C and above 100 µM.
`C/C(=N\NC(=O)Cc1ccc(-c2nc(C)no2)cc1)c1ccc(NC(=O)c2ccc(CO)o2)cc1` [Compound 13f, (E)-5-(hydroxymethyl)-N-(4-(1-(2-(2-(4-(3-methyl-1,2,4-oxadiazol-5-yl)phenyl)acetyl)hydrazineylidene)ethyl)phenyl)furan-2-carboxamide] had a melting point of 243 to 246 °C.
Still for that read-out and setting: the value for `Cc1noc(-c2ccc(CC(=O)N/N=C/c3ccc(NC(=O)c4ccc(CO)o4)cc3)cc2)n1` [Compound 13g, (E)-5-(hydroxymethyl)-N-(4-((2-(2-(4-(3-methyl-1,2,4-oxadiazol-5-yl)phenyl)acetyl) hydrazono)methyl)phenyl)furan-2-carboxamide] was 232 to 235 °C; that for `C/C(=N\NC(=O)Cc1ccc(C(=O)O)cc1)c1ccc(NC(=O)c2ccc(Br)o2)cc1` [Compound 13h, (E)-4-(2-(2-(1-(4-(5-bromofuran-2-carboxamido)phenyl)ethylidene)hydrazineyl)-2-oxoethyl)benzoic acid] was 292 to 295 °C; that for `C/C(=N\NC(=O)Cc1ccc(C(=O)O)cc1)c1ccc(NC(=O)c2ccc(CO)o2)cc1` [Compound 13i, (E)-4-(2-(2-(1-(4-(5-(hydroxymethyl)furan-2-carboxamido)phenyl)ethylidene)hydrazineyl)-2-oxoethyl)benzoic acid] was 232 to 235 °C.
Same read-out and setting: the value for `O=C(Cc1ccc(C(=O)O)cc1)N/N=C/c1ccc(NC(=O)c2ccc(Br)o2)cc1` [Compound 13l, (E)-4-(2-(2-(4-(5-bromofuran-2-carboxamido)benzylidene)hydrazineyl)-2-oxoethyl)benzoic acid] was 307 to 310 °C.
For `O=C(Cc1ccc(C(=O)O)cc1)N/N=C/c1ccc(CNC(=O)c2ccc(Br)o2)cc1` [Compound 13m, (E)-4-(2-(2-(4-((5-bromofuran-2-carboxamido)methyl)benzylidene)hydrazineyl)-2-oxoethyl)benzoic acid], the IC50 against MMP-2 is 3.6 ± 0.4 µM; on MMP-1, 177 ± 20 µM; on MMP-9, 50 ± 3.2 µM; against MMP-14 it was above 200 µM.
Turning to `O=C(Cc1ccc(-c2nnn[nH]2)cc1)N/N=C/c1ccc(NC(=O)c2ccc(Br)o2)cc1` [Compound 13n, (E)-N-(4-((2-(2-(4-(1H-tetrazol-5-yl)phenyl)acetyl)hydrazineylidene)methyl)phenyl)-5-bromofuran-2-carboxamide], the melting point lay in the range of 262 to 265 °C.
Take `O=C(Cc1ccc(-c2nnn[nH]2)cc1)N/N=C/c1ccc(CNC(=O)c2ccc(Br)o2)cc1` [Compound 13o, (E)-N-(4-((2-(2-(4-(1H-tetrazol-5-yl)phenyl)acetyl)hydrazineylidene)methyl)benzyl)-5-bromofuran-2-carboxamide]: the melting point is 245 to 248 °C.
